From ChEMBL document CHEMBL1201862, “PubChem BioAssay data set” (2004)
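All cell lines were grown in 96-well plates and treated with compound for 48 hours. The concentration for 50% growth inhibition is given as GI50.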 Active and inactive are the calls of the source. Cut-off read from the data, not from the text of the source: active = GI50 up to about 1.1 µM and inactive = higher.

How the values were obtained:
Assay in all cases: growth of human tumour cells (NCI), 48 h
HL-60 = test system: HL-60
SF-268 = test system: SF-268
SF-295 = test system: SF-295
KM12 = test system: KM12
OVCAR-8 = test system: OVCAR-8
CCRF-CEM = test system: CCRF-CEM
HT-29 = test system: HT-29
HCT-116 = test system: HCT-116
EKVX = test system: EKVX
Malme-3M = test system: Malme-3M
M14 = test system: M14
SF-539 = test system: SF-539
HCT-15 = test system: HCT-15
ACHN = test system: ACHN
IGROV-1 = test system: IGROV-1
SW-620 = test system: SW-620
UO-31 = test system: UO-31
OVCAR-4 = test system: OVCAR-4
SK-OV-3 = test system: SK-OV-3
RPMI-8226 = test system: RPMI-8226

| Compound | GI50 (HL-60) | GI50 (SF-268) | GI50 (SF-295) | GI50 (KM12) | GI50 (OVCAR-8) | GI50 (CCRF-CEM) | GI50 (HT-29) | GI50 (HCT-116) | GI50 (EKVX) | GI50 (Malme-3M) | GI50 (M14) | GI50 (SF-539) | GI50 (HCT-15) | GI50 (ACHN) | GI50 (IGROV-1) | GI50 (SW-620) | GI50 (UO-31) | GI50 (OVCAR-4) | GI50 (SK-OV-3) | GI50 (RPMI-8226) |
| --- | --- | --- | --- | --- | --- | --- | --- | --- | --- | --- | --- | --- | --- | --- | --- | --- | --- | --- | --- | --- |
| CCCCCCCCCCCCCC(=O)NCC(OCC)OCC | > 100 µM (inactive) | > 100 µM (inactive) | > 100 µM (inactive) | > 100 µM (inactive) | > 100 µM (inactive) | > 100 µM (inactive) | > 100 µM (inactive) | > 100 µM (inactive) | > 100 µM (inactive) | > 100 µM (inactive) | > 100 µM (inactive) | > 100 µM (inactive) | > 100 µM | > 100 µM (inactive) | > 100 µM (inactive) | > 100 µM (inactive) | > 100 µM (inactive) | > 100 µM (inactive) | > 100 µM (inactive) | – |
| COc1ccc(NC(=O)c2oc3cc(O)ccc3c(=O)c2C)c([N+](=O)[O-])c1 | > 100 µM (inactive) | > 100 µM (inactive) | > 100 µM (inactive) | > 100 µM (inactive) | > 100 µM (inactive) | > 100 µM (inactive) | > 100 µM (inactive) | > 100 µM (inactive) | > 100 µM (inactive) | > 100 µM (inactive) | > 100 µM (inactive) | > 100 µM (inactive) | > 100 µM | > 100 µM (inactive) | > 100 µM (inactive) | > 100 µM (inactive) | > 100 µM (inactive) | > 100 µM (inactive) | > 100 µM (inactive) | – |
| CC(=O)Oc1ccccc1C(=O)Nc1ncc([N+](=O)[O-])s1 [NITAZOXANIDE] | – | 14.9 µM (inactive) | 9.91 µM (inactive) | 22 µM (inactive) | 15.7 µM (inactive) | – | 15.5 µM (inactive) | 11.2 µM (inactive) | 21 µM (inactive) | 11.1 µM (inactive) | 15.9 µM (inactive) | 24.8 µM (inactive) | 19.9 µM | 20.4 µM (inactive) | 16.3 µM (inactive) | 33.1 µM (inactive) | 26 µM (inactive) | 28.7 µM (inactive) | 14.7 µM (inactive) | 10.3 µM (inactive) |
| CCCNC(=S)N/C=C1/C(=O)Oc2ccccc2C1=O | 13.6 µM (inactive) | > 100 µM (inactive) | > 100 µM (inactive) | > 100 µM (inactive) | > 100 µM (inactive) | > 100 µM (inactive) | > 100 µM (inactive) | > 100 µM (inactive) | > 100 µM (inactive) | 63.7 µM (inactive) | > 100 µM (inactive) | > 100 µM (inactive) | > 100 µM | 94.8 µM (inactive) | 89.9 µM (inactive) | > 100 µM (inactive) | 28.4 µM (inactive) | > 100 µM (inactive) | 42.2 µM (inactive) | – |
| CCOC(=O)C(=O)Nc1nc2ccc(C)cc2s1 | – | > 100 µM (inactive) | – | > 100 µM (inactive) | > 100 µM (inactive) | > 100 µM (inactive) | > 100 µM (inactive) | > 100 µM (inactive) | > 100 µM (inactive) | > 100 µM (inactive) | > 100 µM (inactive) | 0.995 µM (active) | > 100 µM | > 100 µM (inactive) | > 100 µM (inactive) | > 100 µM (inactive) | > 100 µM (inactive) | > 100 µM (inactive) | > 100 µM (inactive) | > 100 µM (inactive) |
| O=C1CCCC2C(O)CCC[C@H]12 (some centres not stated) | > 100 µM (inactive) | > 100 µM (inactive) | > 100 µM (inactive) | > 100 µM (inactive) | > 100 µM (inactive) | > 100 µM (inactive) | > 100 µM (inactive) | > 100 µM (inactive) | > 100 µM (inactive) | > 100 µM (inactive) | > 100 µM (inactive) | > 100 µM (inactive) | > 100 µM | > 100 µM (inactive) | > 100 µM (inactive) | > 100 µM (inactive) | 51.1 µM (inactive) | > 100 µM (inactive) | > 100 µM (inactive) | – |
| CCOC(=O)NNC(=O)NC12CC3CC(CC(C3)C1)C2 | – | > 100 µM (inactive) | > 100 µM (inactive) | > 100 µM (inactive) | > 100 µM (inactive) | > 100 µM (inactive) | > 100 µM (inactive) | > 100 µM (inactive) | > 100 µM (inactive) | > 100 µM (inactive) | > 100 µM (inactive) | > 100 µM (inactive) | > 100 µM | > 100 µM (inactive) | > 100 µM (inactive) | > 100 µM (inactive) | > 100 µM (inactive) | > 100 µM (inactive) | > 100 µM (inactive) | – |
| CCOC(=O)c1c(N2CCCC2)[nH]c(=O)c(C(c2ccc(OC)cc2)c2c(O)c(C(=O)OCC)c(N3CCCC3)[nH]c2=O)c1O | – | 49.5 µM (inactive) | 25.7 µM (inactive) | > 100 µM (inactive) | 86.1 µM (inactive) | > 100 µM (inactive) | – | > 100 µM (inactive) | 44.8 µM (inactive) | > 100 µM (inactive) | > 100 µM (inactive) | > 100 µM (inactive) | > 100 µM | 56 µM (inactive) | – | > 100 µM (inactive) | > 100 µM (inactive) | > 100 µM (inactive) | > 100 µM (inactive) | > 100 µM (inactive) |
